{
  "source": "ChEMBL document CHEMBL1201862",
  "about": "“PubChem BioAssay data set” (2004)",
  "key": {"[1]": {"biological_target": "T1, Mannose-6-phosphate isomerase (Homo sapiens, UniProt P34949)", "T1 sequence (P34949 whole entry)": "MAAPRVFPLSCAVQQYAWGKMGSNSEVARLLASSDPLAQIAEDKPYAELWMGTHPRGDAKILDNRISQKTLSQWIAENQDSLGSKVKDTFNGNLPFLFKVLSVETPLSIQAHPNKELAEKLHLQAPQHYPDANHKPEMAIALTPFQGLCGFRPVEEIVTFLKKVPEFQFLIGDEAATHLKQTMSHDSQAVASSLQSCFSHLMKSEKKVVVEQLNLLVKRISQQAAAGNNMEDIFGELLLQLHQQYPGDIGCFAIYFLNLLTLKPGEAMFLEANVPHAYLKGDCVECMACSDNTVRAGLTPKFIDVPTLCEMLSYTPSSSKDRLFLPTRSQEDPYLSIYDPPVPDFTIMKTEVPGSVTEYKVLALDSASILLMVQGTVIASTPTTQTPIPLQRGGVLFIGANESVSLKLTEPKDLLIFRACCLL", "assay": "inhibitors of human PMI, primary screen, biochemical, fluorescence intensity, coupled assay (AID 1209)"}, "[2]": {"biological_target": "Peroxisome proliferator-activated receptor gamma/Nuclear receptor coactivator 2 (Homo sapiens, UniProt P37231)", "format": "functional"}, "[3]": {"biological_target": "Peroxisome proliferator-activated receptor gamma/Nuclear receptor coactivator 1 (Homo sapiens, UniProt P37231)", "format": "functional"}, "[4]": {"biological_target": "Peroxisome proliferator-activated receptor gamma/Nuclear receptor coactivator 3 (Homo sapiens, UniProt P37231)", "format": "functional"}, "[5]": {"biological_target": "Transitional endoplasmic reticulum ATPase (Homo sapiens, UniProt P55072, C522A)", "sequence (P55072 2-806 C522A limits assumed)": "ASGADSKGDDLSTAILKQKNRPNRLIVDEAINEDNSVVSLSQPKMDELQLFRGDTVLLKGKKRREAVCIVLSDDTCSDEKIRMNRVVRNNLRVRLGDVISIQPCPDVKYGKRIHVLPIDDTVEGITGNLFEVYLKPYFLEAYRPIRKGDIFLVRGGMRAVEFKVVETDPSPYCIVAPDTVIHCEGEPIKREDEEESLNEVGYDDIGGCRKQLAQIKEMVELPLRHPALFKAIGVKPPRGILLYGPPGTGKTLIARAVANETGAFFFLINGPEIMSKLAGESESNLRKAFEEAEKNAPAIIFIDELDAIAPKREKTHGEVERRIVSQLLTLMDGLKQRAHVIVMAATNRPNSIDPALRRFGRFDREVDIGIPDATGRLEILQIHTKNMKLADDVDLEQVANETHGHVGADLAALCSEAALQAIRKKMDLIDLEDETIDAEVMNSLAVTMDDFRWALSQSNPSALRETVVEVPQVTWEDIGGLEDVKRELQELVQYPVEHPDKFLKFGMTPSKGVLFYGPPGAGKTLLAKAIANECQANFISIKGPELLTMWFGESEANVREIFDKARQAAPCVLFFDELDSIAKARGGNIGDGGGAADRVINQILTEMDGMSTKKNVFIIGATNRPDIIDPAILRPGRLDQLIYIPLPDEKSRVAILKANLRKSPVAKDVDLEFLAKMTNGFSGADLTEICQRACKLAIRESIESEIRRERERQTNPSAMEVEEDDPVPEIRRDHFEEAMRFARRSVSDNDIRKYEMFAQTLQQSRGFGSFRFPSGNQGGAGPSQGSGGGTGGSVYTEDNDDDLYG", "assay": "C522A mutant p97 ATPase inhibitors, dose response, counter-screen for p97 inhibitor project, biochemical, luminescence (AID 1544)"}, "[6]": {"biological_target": "Transitional endoplasmic reticulum ATPase (Homo sapiens, UniProt P55072)", "sequence (P55072 whole entry)": "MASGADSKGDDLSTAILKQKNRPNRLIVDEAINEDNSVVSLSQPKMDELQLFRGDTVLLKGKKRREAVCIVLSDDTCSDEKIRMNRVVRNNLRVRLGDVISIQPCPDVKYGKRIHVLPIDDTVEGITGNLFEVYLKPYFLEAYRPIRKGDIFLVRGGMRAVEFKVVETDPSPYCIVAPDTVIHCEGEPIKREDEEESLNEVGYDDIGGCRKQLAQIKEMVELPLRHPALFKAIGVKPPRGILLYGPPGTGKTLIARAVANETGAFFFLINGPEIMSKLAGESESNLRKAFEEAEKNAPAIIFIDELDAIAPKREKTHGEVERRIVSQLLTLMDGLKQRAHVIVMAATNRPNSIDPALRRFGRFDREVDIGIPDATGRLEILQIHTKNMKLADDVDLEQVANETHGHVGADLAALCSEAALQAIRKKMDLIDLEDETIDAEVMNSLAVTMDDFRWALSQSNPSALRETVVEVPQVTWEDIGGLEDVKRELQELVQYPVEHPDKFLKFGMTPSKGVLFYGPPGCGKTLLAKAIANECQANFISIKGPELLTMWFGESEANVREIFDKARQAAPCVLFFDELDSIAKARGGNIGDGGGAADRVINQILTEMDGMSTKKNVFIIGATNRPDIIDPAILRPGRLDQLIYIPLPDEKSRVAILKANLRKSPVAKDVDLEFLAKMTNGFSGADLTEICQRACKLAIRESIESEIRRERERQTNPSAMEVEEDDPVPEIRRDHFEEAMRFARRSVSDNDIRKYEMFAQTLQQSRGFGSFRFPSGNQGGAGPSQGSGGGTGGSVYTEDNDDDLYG", "assay": "p97 ATPase inhibitors, dose response, biochemical (AID 1534)"}, "[7]": {"biological_target": "Melanin-concentrating hormone receptor 1 (Homo sapiens, UniProt Q99705)", "sequence (Q99705 whole entry)": "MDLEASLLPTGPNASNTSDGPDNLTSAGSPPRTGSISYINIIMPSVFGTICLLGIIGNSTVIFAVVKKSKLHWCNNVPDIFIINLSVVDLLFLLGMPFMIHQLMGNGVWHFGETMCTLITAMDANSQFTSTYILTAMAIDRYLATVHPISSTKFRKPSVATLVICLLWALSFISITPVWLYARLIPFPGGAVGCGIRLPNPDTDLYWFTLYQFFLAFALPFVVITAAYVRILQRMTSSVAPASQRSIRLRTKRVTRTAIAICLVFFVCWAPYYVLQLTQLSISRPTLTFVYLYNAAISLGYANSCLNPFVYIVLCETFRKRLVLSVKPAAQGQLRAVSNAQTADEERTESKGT", "assay": "Late-stage fluorescence-based counterscreen for antagonists of the G-protein coupled receptor 7 (GPR7): cell-based dose response assay to identify antagonists of the melanin-concentrating hormone receptor 1 (MCHR1). [Related pubchem assays (depositor defined):AID1861, AID1880, AID1952, AID2148, AID2251, AID2257, AID485339]", "format": "functional"}, "[8]": {"biological_target": "T2, Caspase-3 (Homo sapiens, UniProt P42574)", "T2 sequence (P42574 whole entry)": "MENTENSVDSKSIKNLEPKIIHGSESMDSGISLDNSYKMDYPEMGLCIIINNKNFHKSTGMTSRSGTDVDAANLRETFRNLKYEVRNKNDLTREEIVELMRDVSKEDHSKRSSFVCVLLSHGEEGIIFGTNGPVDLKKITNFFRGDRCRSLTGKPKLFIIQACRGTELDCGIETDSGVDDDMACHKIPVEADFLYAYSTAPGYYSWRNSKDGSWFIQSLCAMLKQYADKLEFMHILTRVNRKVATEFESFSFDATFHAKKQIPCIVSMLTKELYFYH", "assay": "procaspase-3 activators, dose response, biochemical, absorbance (AID 489014)"}, "[9]": {"biological_target": "Caspase-7 (Homo sapiens, UniProt P55210)", "sequence (P55210 24-198 limits assumed)": "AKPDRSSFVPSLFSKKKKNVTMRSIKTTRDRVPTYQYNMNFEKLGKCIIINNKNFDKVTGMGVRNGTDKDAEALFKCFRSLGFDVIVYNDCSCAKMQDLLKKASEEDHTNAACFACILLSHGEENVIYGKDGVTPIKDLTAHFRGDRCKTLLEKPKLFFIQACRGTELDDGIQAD", "sequence (P55210 207-303 limits assumed)": "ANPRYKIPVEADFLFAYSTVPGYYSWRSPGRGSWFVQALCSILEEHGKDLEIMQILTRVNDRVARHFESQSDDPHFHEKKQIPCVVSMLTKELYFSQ", "assay": "procaspase-7 activators, dose response, counter-screen for procaspase-3 activator project, biochemical, absorbance (AID 489013)"}, "[10]": {"biological_target": "Neuropeptide Y receptor type 1 (Homo sapiens, UniProt P25929)", "sequence (P25929 whole entry)": "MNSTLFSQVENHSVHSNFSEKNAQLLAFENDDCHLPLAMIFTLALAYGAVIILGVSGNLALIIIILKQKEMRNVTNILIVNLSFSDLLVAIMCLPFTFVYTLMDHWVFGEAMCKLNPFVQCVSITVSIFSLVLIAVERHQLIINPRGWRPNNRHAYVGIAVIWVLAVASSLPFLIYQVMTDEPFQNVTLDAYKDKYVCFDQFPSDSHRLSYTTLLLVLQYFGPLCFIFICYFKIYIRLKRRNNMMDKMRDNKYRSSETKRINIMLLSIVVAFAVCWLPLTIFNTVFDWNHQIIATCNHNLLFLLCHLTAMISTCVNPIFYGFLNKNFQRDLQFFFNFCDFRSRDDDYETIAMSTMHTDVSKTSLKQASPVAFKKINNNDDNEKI", "format": "functional"}, "[11]": {"biological_target": "Neuropeptide Y receptor type 2 (Homo sapiens, UniProt P49146)", "sequence (P49146 whole entry)": "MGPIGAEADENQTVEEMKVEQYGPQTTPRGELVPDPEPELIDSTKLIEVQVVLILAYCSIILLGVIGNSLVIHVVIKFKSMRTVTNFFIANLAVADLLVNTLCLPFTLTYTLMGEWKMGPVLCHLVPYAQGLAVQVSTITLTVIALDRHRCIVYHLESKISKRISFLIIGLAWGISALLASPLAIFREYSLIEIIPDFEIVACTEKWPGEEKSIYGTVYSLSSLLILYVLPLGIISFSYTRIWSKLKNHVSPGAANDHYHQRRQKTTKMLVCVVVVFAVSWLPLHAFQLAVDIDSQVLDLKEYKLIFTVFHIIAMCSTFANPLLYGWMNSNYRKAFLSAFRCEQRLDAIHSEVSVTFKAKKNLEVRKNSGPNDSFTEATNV", "format": "functional, cell-based"}, "[12]": {"biological_target": "T3, SUMO-activating enzyme (Homo sapiens, UniProt Q9UBT2)", "T3 sequence (Q9UBE0 whole entry)": "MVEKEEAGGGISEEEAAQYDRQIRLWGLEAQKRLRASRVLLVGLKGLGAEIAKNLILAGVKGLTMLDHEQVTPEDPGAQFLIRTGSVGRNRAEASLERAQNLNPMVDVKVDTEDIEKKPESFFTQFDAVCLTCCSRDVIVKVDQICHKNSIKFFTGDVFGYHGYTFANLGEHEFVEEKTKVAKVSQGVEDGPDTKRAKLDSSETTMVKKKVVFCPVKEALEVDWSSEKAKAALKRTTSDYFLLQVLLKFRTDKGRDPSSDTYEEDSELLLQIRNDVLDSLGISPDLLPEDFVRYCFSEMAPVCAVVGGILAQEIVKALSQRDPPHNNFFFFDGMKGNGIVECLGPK", "T3 sequence (Q9UBT2 whole entry)": "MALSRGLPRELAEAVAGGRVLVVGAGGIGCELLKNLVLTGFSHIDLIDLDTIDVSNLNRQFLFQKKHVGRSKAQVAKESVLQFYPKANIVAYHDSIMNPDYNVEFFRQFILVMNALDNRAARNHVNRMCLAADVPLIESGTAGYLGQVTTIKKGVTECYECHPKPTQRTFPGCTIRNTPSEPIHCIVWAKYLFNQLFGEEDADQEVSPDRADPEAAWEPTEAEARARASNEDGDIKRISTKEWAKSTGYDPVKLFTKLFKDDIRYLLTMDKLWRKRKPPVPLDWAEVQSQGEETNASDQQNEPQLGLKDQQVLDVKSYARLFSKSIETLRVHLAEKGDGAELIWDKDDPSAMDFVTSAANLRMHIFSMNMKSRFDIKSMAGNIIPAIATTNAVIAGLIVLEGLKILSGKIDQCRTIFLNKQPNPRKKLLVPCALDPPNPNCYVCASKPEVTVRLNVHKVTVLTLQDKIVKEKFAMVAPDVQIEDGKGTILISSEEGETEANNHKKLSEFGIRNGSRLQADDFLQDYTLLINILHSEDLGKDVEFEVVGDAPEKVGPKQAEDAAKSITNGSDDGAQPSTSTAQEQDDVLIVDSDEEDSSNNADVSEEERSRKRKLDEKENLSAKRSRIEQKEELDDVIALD", "assay": "SUMOylation inhibitor hit validation, confirmation, SUMOylation inhibitor project, biochemical, AlphaScreen (AID 2018)", "format": "functional"}, "[13]": {"biological_target": "T3, SUMO-activating enzyme", "assay": "inhibitors of in vitro SUMOylation cascade, primary screen, biochemical, HTRF, uHTS (AID 2006)", "format": "protein-complex assay"}, "[14]": {"biological_target": "Protein-tyrosine kinase 2-beta (Homo sapiens, UniProt Q14289)"}, "[15]": {"tested_on": "Staphylococcus aureus", "assay": "Inhibitors of Bacterial Quorum Sensing Structure Activity Relationship (SAR) Analysis: Dose Response Assay. [Related pubchem assays: 700, 527 ]", "format": "functional, organism-based"}, "[16]": {"biological_target": "T4, E3 ubiquitin-protein ligase XIAP (Homo sapiens, UniProt P98170)", "T4 sequence (P98170 whole entry)": "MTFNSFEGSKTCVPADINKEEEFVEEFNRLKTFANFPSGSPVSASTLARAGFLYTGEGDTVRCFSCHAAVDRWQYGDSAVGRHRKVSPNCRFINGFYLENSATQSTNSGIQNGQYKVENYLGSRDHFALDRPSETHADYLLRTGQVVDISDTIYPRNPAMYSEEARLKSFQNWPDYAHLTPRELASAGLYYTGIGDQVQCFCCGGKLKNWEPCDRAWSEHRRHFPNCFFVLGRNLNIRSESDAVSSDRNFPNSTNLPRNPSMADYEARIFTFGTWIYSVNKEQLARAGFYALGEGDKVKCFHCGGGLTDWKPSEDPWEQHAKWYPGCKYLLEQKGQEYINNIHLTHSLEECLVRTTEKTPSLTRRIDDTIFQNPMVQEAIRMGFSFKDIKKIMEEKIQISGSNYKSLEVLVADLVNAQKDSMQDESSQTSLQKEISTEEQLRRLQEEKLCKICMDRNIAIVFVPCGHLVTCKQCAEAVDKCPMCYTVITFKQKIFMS", "assay": "Counter Screen using XIAP-Bir3 for Chemical Antagonists of Bir1/2 domains of IAP-family anti-apoptotic proteins. [Related pubchem assays (depositor defined):AID1018, AID1449, AID1514, AID1638, AID1749, AID1750, AID488957, AID488963]"}, "[17]": {"biological_target": "T4, E3 ubiquitin-protein ligase XIAP", "assay": "XIAP antagonists, biochemical, IAP family, fluorescence polarization (AID 1018)", "format": "functional"}},
  "note": "Active and inactive are the calls of the source.",
  "data": [
    {"smiles": "CC(C)c1ccc(N2C(=O)CC(Sc3nc[nH]n3)C2=O)cc1", "note": "(configuration not stated)", "values": [
      {"measurement": "IC50", "setting": "[1]", "result": "> 50 µM (not active)"}
    ]},
    {"smiles": "N#Cc1c(NC(=O)c2ccccc2Cl)n(Cc2ccccc2)c2nc3ccccc3nc12", "values": [
      {"measurement": "EC50", "setting": "[2]", "result": "> 26.5 µM (not active)"},
      {"measurement": "EC50", "setting": "[3]", "result": "> 79.4 µM (not active)"},
      {"measurement": "EC50", "setting": "[4]", "result": "9.38 µM (active)"},
      {"measurement": "IC50", "setting": "[5]", "result": "> 50 µM (not active)"},
      {"measurement": "IC50", "setting": "[6]", "result": "> 50 µM (not active)"}
    ]},
    {"smiles": "COc1ccc(Oc2c(Cl)cnn(-c3ccc(C(C)C)cc3)c2=O)cc1", "values": [
      {"measurement": "IC50", "setting": "[7]", "result": "3.1 µM (active)"}
    ]},
    {"smiles": "CC1(C)Cc2c(c(N3CCCC3)nc3sc(C(=O)Nc4ccccc4)c(N)c23)CO1", "values": [
      {"measurement": "EC50", "setting": "[8]", "result": "> 85.3 µM (inactive)"},
      {"measurement": "EC50", "setting": "[9]", "result": "> 85.3 µM (inactive)"}
    ]},
    {"smiles": "O=C(COc1ccccc1CNCc1ccccc1)Nc1ccccc1", "values": [
      {"measurement": "IC50", "setting": "[10]", "result": "5.16 µM (active)"},
      {"measurement": "IC50", "setting": "[11]", "result": "9.67 µM (active)"}
    ]},
    {"smiles": "O=C(Cn1c2ccccc2c(=O)c2ccccc21)N/N=C/c1cc([N+](=O)[O-])ccc1N1CCCCCC1", "values": [
      {"measurement": "IC50", "setting": "[12]", "result": "6.12 µM (active)"},
      {"measurement": "IC50", "setting": "[13]", "result": "24.9 µM (active)"},
      {"measurement": "IC50", "setting": "[14]", "result": "1.94 µM (active)"}
    ]},
    {"smiles": "O=C(Nc1ccc2c(c1)OCO2)C(c1ccccc1)N1CCC(Cc2ccccc2)CC1", "note": "(configuration not stated)", "values": [
      {"measurement": "IC50", "setting": "[15]", "result": "802 nM (active)"}
    ]},
    {"smiles": "COc1ccc(CC(=O)Oc2cc(C)nc(O)c2[N+](=O)[O-])cc1", "values": [
      {"measurement": "IC50", "setting": "[16]", "result": "> 100 µM (inactive)"},
      {"measurement": "IC50", "setting": "[17]", "result": "> 100 µM (not active)"}
    ]}
  ]
}
